Patent publication US20050208542A1, “Methods of genotoxicity screening, and biosensors” (priority 2004, published 2005)

Key:
ST ds-DNA = experiment: Capillary electrophoretic analysis of hydrolyzed DNA reacted with styrene oxide; assay type: biochemical, salmon testes; settings: (PDDA/DNA)2 film on carbon cloth, saturated styrene oxide, 48 hr, 37° C., compared with undamaged hydrolyzed DNA
Procedure: (§1) Capillary electrophoretic analysis. A Beckman PACE 5000 with UV detector at 254 nm was used for capillary electrophoresis (CE) to analyze hydrolyzed DNA that had been reacted with styrene oxide. 1 mg mL^−1 ST ds-DNA in 50 mL buffer or (PDDA/DNA)2 films on 3×10 cm carbon cloth in solution were reacted in 50 mL buffer and 0.87 mmol styrene oxide at 37° C. with stirring. Reacted DNA in solution or in films was hydrolyzed by incubating with deoxyribonuclease I (0.1 mg per mg of DNA) for 20 hr at 37° C., followed by incubation with phosphodiesterase I (0.01 unit/mg DNA) and phosphatase, alkaline (0.6 unit/mg DNA) for 5 hours at 37° C. The resulting samples, consisting mainly of individual nucleosides, were analyzed using CE with 20 mM pH 7 phosphate buffer and 100 mM SDS. The capillary was 75 μm×50 cm, with a polyimide coating. To make standard styrene oxide adducts, 0.5 mg mL^−1 guanosine or adenosine were reacted with styrene oxide.
It was previously shown that that styrene oxide is formed from styrene using Mb and cyt P450cam films. However, available capillary electrophoresis and HPLC-MS/MS methods were not sensitive enough to detect and identify damaged DNA directly from the protein-DNA films. Thus, capillary electrophoresis and HPLC-MS were used to confirm that reaction of styrene oxide with DNA in (PDDA/DNA)2 films and in solution gave the reported DNA-styrene oxide adducts. […]

ds-ST-DNA = experiment: HPLC-MS/MS of hydrolyzed DNA reacted with styrene oxide; assay type: biochemical, salmon testes; settings: ds-ST-DNA incubated with styrene oxide 48 hours at 37° C., HPLC-MS/MS (MRM)
Procedure: as §1
Liquid chromatography (LC)-mass spectrometry (MS). A Perkin-Elmer LC with diode-array (255 nm and 280 nm) and mass spectrometer (Micromass, Quattro II) detection were used. Full-scan spectra were taken at low cone voltage (15 V) in the positive ion mode (ESI). The HPLC column was Restek Ultra C-18 reversed-phase (i. d. 2.1 mm, length 10 cm, particle size 5 μm). Solvents were A: 5% acetonitrile/95% water with 0.05% TFA and B: 100% acetonitrile with 0.05% TFA. […]

ds-CT DNA = experiment: ECL/SWV of (Ru-PVP/ds-DNA)2 films after incubation; settings: saturated solution, 37° C., pH 5.5
Procedure: Film assembly. DNA-redox polymer films were constructed by the layer-by-layer electrostatic assembly method. Basal plane PG electrodes were polished with 400 grit SiC paper and then with 0.3 μm α-alumina slurries on Buehler Microcloth, washed with water, sonicated in ethanol for 15 minutes, and then sonicated in water for 15 minutes. Layers were constructed by placing a 30 μL drop of 0.2% aqueous [Ru(bpy)2(PVP)10](CIO4)2 onto each PG electrode, allowing 15 minutes to achieve saturated adsorption and then washing with water. Subsequently, 30 μL of DNA solution (2 mg mL^−1 DNA in 5 mM pH 5.5 acetate buffer+0.05 M NaCl) was place on this PG surface, allowed to adsorb 15 min, and then washed with water. This sequence was repeated to obtain films with 2 redox polymer/DNA bilayers. Films containing ss-DNA and other polynucleotides were also assembled in this way. Assembly of films was monitored at each step with a quartz crystal microbalance.
Reactions with Styrene Oxide. Incubations of films were done in styrene oxide solutions in a stirred reactor at 37.0±0.5° C. […] PG electrodes coated with polynucleotide or DNA films were incubated in the stirred emulsion and then rinsed with water and transferred to the electro-chemical cell containing pH 5.5 buffer for SWV/ECL analysis.
Error bars in FIGS. 22, 23 are mainly the result of electrode-to-electrode variability.

poly[G] = experiment: ECL/SWV of (Ru-PVP/poly[G])2 films after incubation; assay type: biochemical; settings: 10 minutes incubation, saturated solution
Procedure: Reactions with Styrene Oxide.
In addition to catalytic oxidation of guanines, it is possible that adducts formed on DNA by reaction with styrene oxide could be catalytically oxidized by the ruthenium metallopolymer. To assess this possibility, styrene oxide was incubated with films containing individual polynucleotides and the metallopolymer. […] An 80% increase in SWV peak current and a 40% increase in ECL intensity was found.

ds-DNA [1] = experiment: Catalytic SWV with Ru(bpy)3^2+ of PDDA/ds-DNA(/Mb/ds-DNA)2 films after incubation; assay type: biochemical, calf thymus (CT), salmon testes (ST)
ds-DNA [2] = experiment: SWV with Co(bpy)3^3+ electroactive probe, PDDA/ds-DNA(/Mb/ds-DNA)2 films; assay type: biochemical, calf thymus (CT), salmon testes (ST)
Procedure: (§2) Film construction. Films were grown on PG disks (pyrolytic graphite) that had been abraded on 400 grit SiC paper, then with coarse Emery paper (3M Crystal Bay), then ultrasonicated in water for 30 seconds. Layers of ds-DNA and protein were adsorbed alternately for 15 minutes onto the rough PG electrodes, and washed with water between adsorption steps. Adsorbate solutions were: (a) 2 mg mL^−1 DNA in 5 mM pH 7.1 TRIS buffer and 0.50 M NaCl; (b) 2 mg mL^−1 PDDA in 50 mM NaCl; (c) 3 mg mL^−1 Mb in 10 mM pH 5.5 acetate buffer; and (d) 1 mg mL^−1 cyt P450cam in the pH 5.5 buffer. Film of architecture denoted PDDA/DNA(/Mb/DNA)2 or PDDA/DNA(/cyt P450cam/DNA)2 were employed.
(§3) Incubation of DNA/protein films for metabolite generation and reaction with DNA was done in a thermostated vessel at 37° C. containing 1-4% styrene (by volume). To activate the enzymes for styrene oxide formation, 0.2 to 2 mM H2O2 was added to 10 mL pH 5.5 buffer containing 50 mM NaCl. […] For the probe binding method, washed electrodes were transferred to pH 5.5 buffer containing 20 μM Co(bpy)3^3+.
(§4) Voltammetry. CH Instruments 660A and CH 430 electrochemical analyzers were used for square wave voltammetry (SWV), with ˜95% ohmic drop compensated. […]
(§5) The time course of the reaction can readily be monitored via the ratio of initial SWV peak current for a given film (Ip,i) to that after reaction (Ip,f). […]

CT-ds-DNA = experiment: SWV of Ru/Mb/DNA films (PSS/ClRu-PVP/CT-ds-DNA/(Mb/CT-ds-DNA)2) after incubation; settings: for SWV peak current at 0.75 V: saturated styrene or toluene and H2O2, pH 5.5
ST-ds-DNA = experiment: Catalytic SWV with Ru(bpy)3^2+ of DNA(Cyt P450cam/ST-ds-DNA)2 films after incubation
Procedure: as §2
Incubation of DNA/protein films for metabolite generation and reaction with DNA was done in a thermostated vessel at 37° C. containing 1-4% styrene (by volume). To activate the enzymes for styrene oxide formation, 0.2 to 2 mM H2O2 was added to 10 mL pH 5.5 buffer containing 50 mM NaCl. After incubation, the electrodes were rinsed with water and transferred to pH 5.5 buffer containing 50 μM Ru(bpy)3^2+ for analysis by catalytic SWV.
as §4

ds-CT-DNA = experiment: SWV with Co(bpy)3^3+ electroactive probe, PDDA/ds-CT-DNA(cyt P450cam/ds-CT-DNA)2 films; settings: 4% styrene + 2 mM H2O2
Procedure: as §2, §3
CH Instruments 660A and CH 430 electrochemical analyzers were used for square wave voltammetry (SWV), with ˜95% ohmic drop compensated. […]
as §5

Row | Ip,i/Ip,f peak current ratio vs. reaction time (ds-DNA [2]; Mb films, 4% styrene or 4% toluene + 2 mM hydrogen peroxide, over 45 min) | SWV peak height for reduction of Co(bpy)3^3+ at 0.04 V vs. SCE (ds-DNA [2]; Mb/ST-ds-DNA films, 4% styrene and 2 mM H2O2, 37° C., pH 5.5, 20 μM Co(bpy)3^3+) | Rate of increase of SWV peak current, less than with Mb/ST-DNA films (ST-ds-DNA; cyt P450cam films versus Mb/ST-DNA films, styrene and hydrogen peroxide) | Slope of Ip,i/Ip,f peak ratio vs. time, compared with Mb films (ds-CT-DNA) | Compound | DNA-styrene oxide adduct peaks in capillary electropherogram (ST ds-DNA) | Number of styrene oxide adducts each for dA and dG (ds-ST-DNA) | ECL peak vs. incubation time (ds-CT DNA) | SWV peak vs. incubation time (ds-CT DNA) | Increase in ECL intensity (poly[G]) | Increase in SWV peak current (poly[G]) | Dependence of catalytic SWV peak height on styrene concentration (ds-DNA [1]; Mb/DNA films activated by H2O2, styrene 1-4%) | Catalytic SWV oxidation peak current (DNA damage) (ds-DNA [1]; Mb/DNA films, 37° C., pH 5.5, with 0.2 mM H2O2, 2% styrene, 2% toluene or 0.2 mM benzaldehyde, read in 50 μM Ru(bpy)3^2+) | Catalytic SWV oxidation peak current (DNA damage) (ds-DNA [1]; ST-DNA/Mb films, 2% styrene but no H2O2) | Ratio of final peak current after incubation to initial peak current (CT-ds-DNA; saturated styrene and H2O2, pH 5.5) | SWV peak current at 0.75 V (CT-ds-DNA) | SWV catalytic peak current (DNA damage) (ST-ds-DNA; cyt P450cam/ST-ds-DNA films, 2% styrene + 0.2 mM H2O2, 50 μM Ru(bpy)3^2+)
1 | – | – | – | – | c1ccc(C2CO2)cc1 (stereo not drawn) [styrene oxide] | new peaks evident | at least 4 | increases in the ECL and the SWV peaks were observed with increasing incubation time | increases in the ECL and the SWV peaks were observed with increasing incubation time | 40% | 80% | – | – | – | – | – | –
2 | linear increases | decreased with incubation time | about 30% | smaller slopes | C=Cc1ccccc1 [styrene] | – | – | – | – | – | – | did not depend on styrene concentration between 1-4% | increased with reaction time | No significant increases in peak current or trends with incubation time | showed an increase over the first 15 minutes and then decreased gradually | increased | rapid increase in SWV peak current for the first five minutes was followed by a slower increase from 5-30 minutes
3 | – | – | – | – | Cc1ccccc1 [toluene] | – | – | showed no trends with incubation time | showed no trends with incubation time | nearly identical to initial values | nearly identical to initial values | – | – | – | – | did not show increases | –
